In patent US20070161592A1, “Method of treating fear” (priority 2005, published 2007):
Entries after “also recorded” stand apart in the source; their conditions may differ.

System: C57BL/6 male mice
Assay: Mouse fear conditioning (contextual and auditory fear memory, freezing)
Type: in vivo
Method: siRNA corresponding to NR2B (sense 5′-GGAUGAGUCCUCCAUGUUCtt-3′ and antisense 5′-GAACAUGGAGGACUCAUCCtt-3′, Silencer Pre-designed siRNA, ID #61879, Ambion, Tex.) was delivered into the ACC by microelectroporation, which was performed as described previously (Wei et al., 2003). Briefly, 0.5 μl of 1:4 mixture of siRNA (2.5 μg/μl) and pEGFP-N1 (1 μg/μl) was injected into the ACC (0.7 mm anterior to Bregma, ±0.4 mm lateral from the midline, 1.8 mm beneath the surface of the skull) (Franklin and Paxinos, 1997) through a 30-gauge injection cannula. Then, square-wave electric pulses (five pulses at 1 Hz, 50 ms duration at 40 V) were delivered through a pair of silver electrodes placed 2 mm anterior and 1 mm posterior to the injection site using a S48 Stimulator (Grass Instruments). Control groups consisted of a group receiving only the electroporation shock, pEGFP-N1, or Silencer Negative control siRNA (#4611, Ambion) and pEGFP-N1. Western blot analysis was performed 4 days after electroporation and electrophysiological recordings were taken 2-4 days after.
Under ketamine and xylazine anesthesia, 24-guage guide cannulas were implanted bilaterally into the ACC (0.7 mm anterior to Bregma, ±0.4 mm lateral from the midline, 1.7 mm beneath the surface of the skull) or dorsal hippocampus (2.0 mm posterior to Bregma, ±1.5 mm lateral from the midline, 1.9 mm beneath the surface of the skull). Mice were given at least 2 weeks to recover after cannula implantation. All procedures were performed in accordance with the requirements of the Animal Studies Committee at the University of Toronto. The 30-gauge injection cannula was 0.1 mm lower than the guide. For intra-ACC infusion, 0.5 μl Ro25-6981 (4 μg/μl) or saline was delivered bilaterally within 90 s using a pump. 15 min later mice were conditioned by one pairing of a tone (2.8 kHz, 85 dB, 30 s) and a foot shock (0.75 mA, 2 s) that terminated at the same time as the tone. For intra-hippocampal infusion, 0.5 μl Ro25-6981 (10 μg/μl) or saline was delivered bilaterally within 90 s. 15 min later mice received one pairing of a tone and a foot shock, as above. One day later, animals were exposed to the conditioning context without a tone for 3 min and freezing responses were scored automatically (Freeze view software, Actrimetrics, Wilmette, Ill.).
NR2B subunit inhibition in adult mice was examined to determine whether this impairs the formation of contextual fear memory. Three days after bilateral siRNA electroporation, mice were trained (or conditioned) and then tested for contextual fear memory by assessing freezing behavior in the same environmental context after 24 hours. There was no difference in baseline freezing or in freezing immediately following the shock/tone pairing between groups; however, there was a significant difference between groups when tested in the contextual environment one day later (n=8 for EGFP only; n=10 for control siRNA; n=8 for shock only; n=11 for NR2B siRNA; one-way ANOVA, p=0.005; FIG. 8C). […] Since the activation of NR2B was suppressed throughout the training and memory test, the roles of NR2B during the acquisition and retrieval of fear memory cannot be distinguished. Recently, electric stimulation of the ACC was reported to induce fear memory one and three days after stimulation (Tang et al., 2005), which implies that the ACC may be involved in the acquisition of fear memory. To directly address this issue, the effect of NR2B blockade using Ro25-6981 was examined. […] In order to rule out any locomotor side-effects, locomotor activity in the open field was tested after bilateral ACC microinjection of Ro25-6981 (n=4) or vehicle (n=4).

[1] = mice, 5 μg in 0.5 μl bilaterally into dorsal hippocampi, tested one day after training

Compound	auditory fear memory (mice, 2 μg in 0.5 μl per side into the bilateral ACC)	auditory fear memory [1]	contextual fear memory [1]	baseline or immediate freezing behavior (mice, ACC microinjection)	baseline or immediate freezing behavior (mice, hippocampal microinjection)	contextual fear memory (freezing in the contextual environment) (mice, microinjection 2 μg in 0.5 μl per side into the bilateral ACC before conditioning)	baseline freezing or freezing immediately following the shock/tone pairing (bilateral siRNA electroporation into ACC)	contextual fear memory (freezing in the contextual environment) (bilateral siRNA electroporation into ACC, trained three days later, tested after 24 hours)
C[C@@H](CN1CCC(Cc2ccccc2)CC1)[C@@H](O)c1ccc(O)cc1 [Ro25-6981]	no difference in auditory fear memory	did not affect	did not impair contextual fear memory; also recorded: did not affect	did not significantly affect	did not significantly affect	decreased contextual fear memory; also recorded: significant reduction in freezing		
NR2B siRNA: siRNA corresponding to NR2B, sense 5′-GGAUGAGUCCUCCAUGUUCtt-3′, antisense 5′-GAACAUGGAGGACUCAUCCtt-3′, Silencer Pre-designed siRNA ID #61879, Ambion (sense GGAUGAGUCCUCCAUGUUCTT; antisense GAACAUGGAGGACUCAUCCTT; chemistry not given here)							no difference	impaired contextual fear memory; also recorded: significantly less freezing
